Experimental data reported in ChEMBL document CHEMBL1158303, “Macrocarpals H, I, and J from the Leaves of Eucalyptus globulus” (1996).
≈ marks a conversion by molar mass, not a printed value.

What was measured:
Streptococcus mutans [1] = assay: Antibacterial activity against Streptococcus mutans Ingbritt by broth dilution method; type: functional
Streptococcus mutans [2] = assay: Antibacterial activity against Streptococcus mutans LA7 by broth dilution method; type: functional
Streptococcus sobrinus [3] = assay: Antibacterial activity against Streptococcus sobrinus 6715 by broth dilution method; type: functional
Streptococcus sobrinus [4] = assay: Antibacterial activity against Streptococcus sobrinus B13 by broth dilution method; type: functional
Actinomyces viscosus = assay: Antibacterial activity against Actinomyces viscosus 15987 by broth dilution method; type: functional
Porphyromonas gingivalis = assay: Antibacterial activity against Porphyromonas gingivalis 33277 by broth dilution method; type: functional
[5] = tested on: Prevotella melaninogenica; assay: Antibacterial activity against Prevotella melaninogenica 25845 by broth dilution method; type: functional
Prevotella intermedia = assay: Antibacterial activity against Prevotella intermedia 25611 by broth dilution method; type: functional
Capnocytophaga ochracea = assay: Antibacterial activity against Capnocytophaga ochracea 33596 by broth dilution method; type: functional
Fusobacterium nucleatum = assay: Antibacterial activity against Fusobacterium nucleatum 25586 by broth dilution method; type: functional
Streptococcus sobrinus [6] = assay: Inhibition of Streptococcus sobrinus glucosyltransferase assessed as blockade of adherent water insoluble glucan synthesis at 100 ug/mL
Streptococcus sobrinus [7] = assay: Inhibition of Streptococcus sobrinus glucosyltransferase assessed as blockade of adherent water insoluble glucan synthesis at 10 ug/mL
Streptococcus sobrinus [8] = assay: Inhibition of Streptococcus sobrinus glucosyltransferase assessed as blockade of adherent water insoluble glucan synthesis at 1 ug/mL

SMILES | MIC (Streptococcus mutans [1]) [µg/mL] | MIC (Streptococcus mutans [2]) [µg/mL] | MIC (Streptococcus sobrinus [3]) [µg/mL] | MIC (Streptococcus sobrinus [4]) [µg/mL] | MIC (Actinomyces viscosus) [µg/mL] | MIC (Porphyromonas gingivalis) [µg/mL] | MIC [5] [µg/mL] | MIC (Prevotella intermedia) [µg/mL] | MIC (Capnocytophaga ochracea) [µg/mL] | MIC (Fusobacterium nucleatum) [µg/mL] | inhibition (Streptococcus sobrinus [6]) [%] | inhibition (Streptococcus sobrinus [7]) [%] | inhibition (Streptococcus sobrinus [8]) [%]
Cc1ccc(C(C)C)c(O)c1 [THYMOL] | 400 (≈ 2660 µM) | 400 (≈ 2660 µM) | 200 (≈ 1330 µM) | 400 (≈ 2660 µM) | 200 (≈ 1330 µM) | 200 (≈ 1330 µM) | 200 (≈ 1330 µM) | 200 (≈ 1330 µM) | 100 (≈ 666 µM) | 50 (≈ 333 µM) |  |  | 
CC(=O)CC[C@@H]1[C@H]([C@H]2C(=O)CC[C@]2(C)C(CC(C)C)c2c(O)c(C=O)c(O)c(C=O)c2O)C1(C)C (some centres not stated) [EUCALYPTONE] | 12.5 (≈ 25.7 µM) | 12.5 (≈ 25.7 µM) | 25 (≈ 51.4 µM) | 25 (≈ 51.4 µM) | 3.13 (≈ 6.43 µM) | 1.56 (≈ 3.21 µM) | 3.13 (≈ 6.43 µM) | 0.78 (≈ 1.6 µM) | 3.13 (≈ 6.43 µM) | 6.25 (≈ 12.8 µM) | 97.6 | 44 | 4.4
CC(C)CC(c1c(O)c(C=O)c(O)c(C=O)c1O)[C@@H]1CC[C@@](C)(O)[C@@H]2C[C@H](C(C)(C)O)CC[C@]21C (some centres not stated) [MACROCARPAL J] | 50 (≈ 102 µM) | 25 (≈ 51 µM) | 100 (≈ 204 µM) | 100 (≈ 204 µM) | 12.5 (≈ 25.5 µM) | 6.25 (≈ 12.7 µM) | 12.5 (≈ 25.5 µM) | 12.5 (≈ 25.5 µM) | 12.5 (≈ 25.5 µM) | 25 (≈ 51 µM) | 77.1 | 29.7 | 6.9
O=C(O[C@@H]1Cc2c(O)cc(O)cc2O[C@@H]1c1cc(O)c(O)c(O)c1)c1cc(O)c(O)c(O)c1 |  |  |  |  |  |  |  |  |  |  | 26.5 | 10.5 | 3
CC(C)C[C@@H](c1c(O)c(C=O)c(O)c(C=O)c1O)[C@@]1(C)CC[C@@H]2[C@@H]1[C@H]1[C@@H](CC[C@@]2(C)O)C1(C)C [MACROCARPAL A] | 0.78 (≈ 1.65 µM) | 0.78 (≈ 1.65 µM) | 1.56 (≈ 3.3 µM) | 1.56 (≈ 3.3 µM) | 0.39 (≈ 0.825 µM) | 0.39 (≈ 0.825 µM) | 0.78 (≈ 1.65 µM) | 0.39 (≈ 0.825 µM) | 0.78 (≈ 1.65 µM) | 6.25 (≈ 13.2 µM) | 97.1 | 75.4 | 9.7
CC(C)C[C@@H](c1c(O)c(C=O)c(O)c(C=O)c1O)[C@@]1(C)CC[C@H]2C1=C[C@H](C(C)(C)O)CC[C@H]2C [MACROCARPAL D] | 1.56 (≈ 3.3 µM) | 0.78 (≈ 1.65 µM) | 3.13 (≈ 6.62 µM) | 0.78 (≈ 1.65 µM) | 0.39 (≈ 0.825 µM) | 0.39 (≈ 0.825 µM) | 1.56 (≈ 3.3 µM) | 0.39 (≈ 0.825 µM) | 1.56 (≈ 3.3 µM) | 6.25 (≈ 13.2 µM) | 99 | 78.2 | 17.3
CC(C)C[C@H](c1c(O)c(C=O)c(O)c(C=O)c1O)[C@@]1(C)CC[C@@H]2[C@@H]1[C@H]1[C@@H](CC[C@@]2(C)O)C1(C)C [MACROCARPAL B] | 3.13 (≈ 6.62 µM) | 1.56 (≈ 3.3 µM) | 3.13 (≈ 6.62 µM) | 3.13 (≈ 6.62 µM) | 0.39 (≈ 0.825 µM) | 0.78 (≈ 1.65 µM) | 3.13 (≈ 6.62 µM) | 1.56 (≈ 3.3 µM) | 1.56 (≈ 3.3 µM) | 3.13 (≈ 6.62 µM) | 97.1 | 67.6 | 10.1
CC(C)C[C@H](c1c(O)c(C=O)c(O)c(C=O)c1O)[C@@H]1CC[C@@](C)(O)[C@@H]2C[C@H](C(C)(C)O)CC[C@]21C [MACROCARPAL I] | 50 (≈ 102 µM) | 25 (≈ 51 µM) | 100 (≈ 204 µM) | 100 (≈ 204 µM) | 12.5 (≈ 25.5 µM) | 6.25 (≈ 12.7 µM) | 12.5 (≈ 25.5 µM) | 12.5 (≈ 25.5 µM) | 12.5 (≈ 25.5 µM) | 25 (≈ 51 µM) | 86.9 | 26.3 | 0
C=C1CC[C@@H]2[C@H]([C@H]3[C@H]1CC[C@]3(C)[C@@H](CC(C)C)c1c(O)c(C=O)c(O)c(C=O)c1O)C2(C)C [MACROCARPAL C] | 0.39 (≈ 0.858 µM) | 0.39 (≈ 0.858 µM) | 1.56 (≈ 3.43 µM) | 1.56 (≈ 3.43 µM) | 0.2 (≈ 0.44 µM) | 0.2 (≈ 0.44 µM) | 1.56 (≈ 3.43 µM) | 0.39 (≈ 0.858 µM) | 0.39 (≈ 0.858 µM) | 0.78 (≈ 1.72 µM) | 98.9 | 92.6 | 18.9
C=C1CC[C@@H]([C@H](CC(C)C)c2c(O)c(C=O)c(O)c(C=O)c2O)[C@]2(C)CC[C@@H](C(C)(C)O)C[C@@H]12 [MACROCARPAL H] | 3.13 (≈ 6.62 µM) | 1.56 (≈ 3.3 µM) | 3.13 (≈ 6.62 µM) | 3.13 (≈ 6.62 µM) | 0.39 (≈ 0.825 µM) | 0.78 (≈ 1.65 µM) | 3.13 (≈ 6.62 µM) | 0.78 (≈ 1.65 µM) | 1.56 (≈ 3.3 µM) | 6.25 (≈ 13.2 µM) | 97.6 | 64 | 2.9
